Data published in US11129839B2, “Minocycline compounds for biodefense” (priority 2015, dated 2021).
Converted amounts (≈) assume the structure as drawn. Read-outs that look alike come from different tables or passages of the source.

What was measured:
B. mallei [1] = assay: microbe, parasite or virus in culture; format: cell-based
[2] = system: Staphylococcus aureus (MRSA); details: cited from earlier work
Escherichia coli = details: cited from earlier work
Y. pestis (C092) = system: Y. pestis (C092); design: species or system BALB/c mice; details: mouse, in vivo; for PD50: ip
E. faecalis = assay: animal or person; format: in vivo, Mice; details: Enterococcus faecalis, in Mus musculus, read-out: PD50/ED50
Clostridium difficile = details: cited from earlier work
E. coli = assay: animal or person; format: in vivo, Mice; details: Escherichia coli, in Mus musculus, read-out: PD50/ED50
Shigella spp. = details: cited from earlier work
[3] = system: Staphylococcus aureus (MSSA); details: cited from earlier work
[4] = system: Streptococcus pneumoniae (PRSP); details: cited from earlier work
Klebsiella pneumonia = details: cited from earlier work
[5] = system: Coagulase-negative staphylococci; details: cited from earlier work
Y. pestis [6] = assay: microbe, parasite or virus in culture; format: cell-based
Acinetobacter baumannii = details: cited from earlier work
[7] = system: Enterococcus faecium (VSE); details: cited from earlier work
Haemophilus influenza = details: cited from earlier work
Clostridium perfringens = details: cited from earlier work
[8] = system: bacteria isolated from clinical specimens; format: cell-based
Enterobacter aerogenes = details: cited from earlier work
[9] = system: Enterococcus facecalis (VRE); details: cited from earlier work
B. anthracis AMES strain = system: B. anthracis AMES strain; design: species or system BALB/c mice; details: mouse, in vivo; for PD50: ip
[10] = system: Enterococcus faecium (VRE); details: cited from earlier work
Streptococcus pneumonia = details: cited from earlier work
Legionella pneumophila = assay: microbe, parasite or virus in culture; format: cell-based
B. pseudomallei [11] = assay: microbe, parasite or virus in culture; format: cell-based; details: Burkholderia pseudomallei
Enterobacter cloacae = details: cited from earlier work
Chlamydia pneumonia = assay: microbe, parasite or virus in culture; format: cell-based
H. influenza = assay: animal or person; format: in vivo, Mice; details: Mus musculus, read-out: PD50/ED50
B. mallei (China 7) = system: B. mallei (China 7); design: species or system BALB/c mice; details: mouse, in vivo
Moraxella catarrhalis = details: cited from earlier work
Streptococcus pyogenes = details: cited from earlier work
Pseudomonas aeruginosa = details: cited from earlier work
[12] = system: Enterococcus faecalis (VSE); details: cited from earlier work
Streptococcus agalactiae = details: cited from earlier work
Burkholderia cepacia = details: cited from earlier work
Salmonella spp. = details: cited from earlier work
F. tularensis = assay: microbe, parasite or virus in culture; format: cell-based
Bacteroides fragilis = details: cited from earlier work
Proteus mirabilis = details: cited from earlier work
B. anthracis [13] = assay: microbe, parasite or virus in culture; format: cell-based
B. anthracis [14] = details: cited from earlier work
Y. pestis [15] = details: cited from earlier work
B. pseudomallei [16] = details: cited from earlier work
B. mallei [17] = details: cited from earlier work

Question: With CC[C@H]1OC(=O)[C@H](C)[C@@H](O[C@H]2C[C@@](C)(OC)[C@@H](O)[C@H](C)O2)[C@H](C)[C@@H](O[C@@H]2O[C@H](C)C[C@H](N(C)C)[C@H]2O)[C@](C)(O)C[C@@H](C)CN(C)[C@H](C)[C@@H](O)[C@]1(C)O [azithromycin, reference compound] as the compound, how does the MIC (B. mallei [1]; Burkholderia mallei) read?
Answer: 0.5 µg/mL (≈ 0.668 µM)

Question: Which MIC50 [2] does the source give for CN(C)c1cc(CNCC(C)(C)C)c(O)c2c1C[C@H]1C[C@H]3[C@H](N(C)C)C(O)=C(C(N)=O)C(=O)[C@@]3(O)C(O)=C1C2=O [Compound A, 9-[(2,2-dimethyl-propylamino)-methyl]minocycline] here?
Answer: 0.25/0.12 μg/mL

Question: What about the MIC90 [2] of the same compound?
Answer: 0.25/2 μg/mL

Question: And the MIC50 (Escherichia coli)?
Answer: 2/8 μg/mL

Question: What about the MIC90 (Escherichia coli) of the same compound?
Answer: 4/>32 μg/mL

Question: What about the “percent survival (comparison in words, FIG. 1)” value (Y. pestis (C092); 40 mg/kg) of the same compound?
Answer: more effective as doxycycline at 40 mg/kg and is at least as effective or ciprofloxacin at 15 mg/kg

Question: What about the PD50 (Y. pestis (C092)) of the same compound?
Answer: 23.5 (range of 20.1 to 27.0 mg/kg)

Question: And the ED50 (E. faecalis)?
Answer: 4.5 mg/kg

Question: And the MIC50 (Clostridium difficile)?
Answer: 0.12/0.03 μg/mL

Question: And the MIC90 (Clostridium difficile)?
Answer: 0.12/1 μg/mL

Question: And the ED50 (E. coli)?
Answer: 4.3 mg/kg

Question: What about the MIC50 (Shigella spp.) of the same compound?
Answer: 1/1 μg/mL

Question: And the MIC90 (Shigella spp.)?
Answer: 2/32 μg/mL

Question: What about the MIC50 [3] of the same compound?
Answer: 0.25/0.12 μg/mL

Question: What about the MIC90 [3] of the same compound?
Answer: 0.25/0.25 μg/mL

Question: And the MIC50 [4]?
Answer: 0.12/8 μg/mL

Question: And the MIC90 [4]?
Answer: 0.12/8 μg/mL

Question: What about the MIC50 (Klebsiella pneumonia) of the same compound?
Answer: 2/2 μg/mL

Question: What about the MIC90 (Klebsiella pneumonia) of the same compound?
Answer: 8/>32 μg/mL

Question: And the MIC50 [5]?
Answer: 0.25/0.25 μg/mL

Question: What about the MIC90 [5] of the same compound?
Answer: 1/2 μg/mL

Question: And the MIC range (Y. pestis [6])?
Answer: 0.125 to 2 µg/mL

Question: And the “in vitro activity (in words)” value (Y. pestis [6])?
Answer: significant activity

Question: What about the MIC (Y. pestis [6]; Yersinia pestis) of the same compound?
Answer: 1 µg/mL (≈ 1.8 µM)

Question: And the MIC50 (Y. pestis [6]; Yersinia pestis)?
Answer: 1 µg/mL (≈ 1.8 µM)

Question: What about the MIC90 (Y. pestis [6]; Yersinia pestis) of the same compound?
Answer: 1 µg/mL (≈ 1.8 µM)

Question: And the MIC50 (Acinetobacter baumannii)?
Answer: 0.25/0.25 μg/mL

Question: What about the MIC90 (Acinetobacter baumannii) of the same compound?
Answer: 4/2 μg/mL

Question: What about the MIC50 [7] of the same compound?
Answer: 0.12/0.12 μg/mL

Question: And the MIC90 [7]?
Answer: 0.12/16^ μg/mL

Question: What about the MIC50 (Haemophilus influenza) of the same compound?
Answer: 0.5/0.5 μg/mL

Question: What about the MIC90 (Haemophilus influenza) of the same compound?
Answer: 1/1 μg/mL

Question: And the MIC50 (Clostridium perfringens)?
Answer: 1/2 μg/mL

Question: What about the MIC90 (Clostridium perfringens) of the same compound?
Answer: 4/8 μg/mL

Question: And the “effect of serum or lung surfactant on in vitro activity” value [8]?
Answer: not affected by serum or lung surfactant

Question: And the MIC50 (Enterobacter aerogenes)?
Answer: 2/2 μg/mL

Question: And the MIC90 (Enterobacter aerogenes)?
Answer: 4/4 μg/mL

Question: What about the MIC50 [9] of the same compound?
Answer: 0.12/0.25 μg/mL

Question: And the MIC90 [9]?
Answer: 0.25/8 μg/mL

Question: And the “percent survival (comparison in words, FIG. 2)” value (B. anthracis AMES strain)?
Answer: as effective as doxycycline or ciprofloxacin

Question: And the PD50 (B. anthracis AMES strain)?
Answer: 0.8 (range of 0.6 to 1.1 mg/kg)

Question: And the MIC50 [10]?
Answer: 0.12/8 μg/mL

Question: And the MIC90 [10]?
Answer: 0.12/8 μg/mL

Question: What about the MIC50 (Streptococcus pneumonia) of the same compound?
Answer: 0.12/0.25 μg/mL

Question: And the MIC90 (Streptococcus pneumonia)?
Answer: 0.12/8 μg/mL

Question: What about the MIC50 (Legionella pneumophila) of the same compound?
Answer: 0.25 µg/mL (≈ 0.449 µM)

Question: What about the MIC90 (Legionella pneumophila) of the same compound?
Answer: 0.25 µg/mL (≈ 0.449 µM)

Question: And the MIC50 (B. pseudomallei [11])?
Answer: 64 µg/mL (≈ 115 µM)

Question: What about the MIC90 (B. pseudomallei [11]) of the same compound?
Answer: > 64 µg/mL

Question: What about the MIC50 (Enterobacter cloacae) of the same compound?
Answer: 2/4 μg/mL

Question: What about the MIC90 (Enterobacter cloacae) of the same compound?
Answer: 16/16 μg/mL

Question: And the MIC50 (Chlamydia pneumonia)?
Answer: 0.25 µg/mL (≈ 0.449 µM)

Question: And the MIC90 (Chlamydia pneumonia)?
Answer: 0.25 µg/mL (≈ 0.449 µM)

Question: And the ED50 (H. influenza)?
Answer: 4.7 mg/kg

Question: What about the “percent survival (in words, FIG. 3)” value (B. mallei (China 7)) of the same compound?
Answer: as effective as doxycycline or azithromycin

Question: What about the MIC50 (Moraxella catarrhalis) of the same compound?
Answer: 0.25/0.25 μg/mL

Question: What about the MIC90 (Moraxella catarrhalis) of the same compound?
Answer: 0.25/0.25 μg/mL

Question: And the MIC50 (Streptococcus pyogenes)?
Answer: 0.12/25^ μg/mL

Question: What about the MIC90 (Streptococcus pyogenes) of the same compound?
Answer: 0.12/0.25 μg/mL

Question: And the MIC50 (Pseudomonas aeruginosa)?
Answer: 32/32 μg/mL

Question: What about the MIC90 (Pseudomonas aeruginosa) of the same compound?
Answer: 64/32 μg/mL

Question: And the MIC50 [12]?
Answer: 0.25/8 μg/mL

Question: And the MIC90 [12]?
Answer: 0.5/8^ μg/mL

Question: What about the MIC50 (Streptococcus agalactiae) of the same compound?
Answer: 0.25/8 μg/mL

Question: What about the MIC90 (Streptococcus agalactiae) of the same compound?
Answer: 0.25/16^ μg/mL

Question: And the MIC50 (Burkholderia cepacia)?
Answer: 2/4 μg/mL

Question: And the MIC90 (Burkholderia cepacia)?
Answer: 64/>32 μg/mL

Question: What about the MIC50 (Salmonella spp.) of the same compound?
Answer: 2/4 μg/mL

Question: And the MIC90 (Salmonella spp.)?
Answer: 8/32 μg/mL

Question: And the MIC range (F. tularensis)?
Answer: 0.5 to 2 µg/mL

Question: And the “in vitro activity (in words)” value (F. tularensis)?
Answer: significant activity

Question: What about the MIC50 (F. tularensis; Francisella tularensis) of the same compound?
Answer: 1 µg/mL (≈ 1.8 µM)

Question: And the MIC90 (F. tularensis; Francisella tularensis)?
Answer: 2 µg/mL (≈ 3.59 µM)

Question: What about the MIC50 (Bacteroides fragilis) of the same compound?
Answer: 1/8 μg/mL

Question: What about the MIC90 (Bacteroides fragilis) of the same compound?
Answer: 4/16 μg/mL

Question: What about the MIC50 (Proteus mirabilis) of the same compound?
Answer: 16/16 μg/mL

Question: What about the MIC90 (Proteus mirabilis) of the same compound?
Answer: 32/>32 μg/mL

Question: What about the MIC range (B. anthracis [13]) of the same compound?
Answer: <0.03125 to 0.0625 µg/mL

Question: What about the “in vitro activity (in words)” value (B. anthracis [13]) of the same compound?
Answer: highly active

Question: And the MIC (B. anthracis [13]; Bacillus anthracis)?
Answer: < 0.03 µg/mL

Question: And the MIC50 (B. anthracis [13]; Bacillus anthracis)?
Answer: 0.0312 µg/mL (≈ 0.0561 µM)

Question: And the MIC90 (B. anthracis [13]; Bacillus anthracis)?
Answer: 0.0625 µg/mL (≈ 0.112 µM)

Question: And the MIC range (B. mallei [1])?
Answer: <0.03125 to 0.5 µg/mL

Question: And the “in vitro activity (in words)” value (B. mallei [1])?
Answer: highly active

Question: What about the MIC (B. mallei [1]; Burkholderia mallei) of the same compound?
Answer: 0.25 µg/mL (≈ 0.449 µM)

Question: What about the MIC50 (B. mallei [1]; Burkholderia mallei) of the same compound?
Answer: 0.125 µg/mL (≈ 0.225 µM)

Question: What about the MIC90 (B. mallei [1]; Burkholderia mallei) of the same compound?
Answer: 0.25 µg/mL (≈ 0.449 µM)

Question: Which results are given for C[C@H]1c2cccc(O)c2C(=O)C2=C(O)[C@]3(O)C(=O)C(C(N)=O)=C(O)[C@@H](N(C)C)[C@@H]3[C@@H](O)[C@@H]21 [Doxycycline, reference compound]?
Answer: PD50 (Y. pestis (C092)): 29.7 (range of 20.7 to 38.8) mg/kg; MIC (Y. pestis [6]; Yersinia pestis): 0.5 µg/mL (≈ 1.13 µM); PD50 (B. anthracis AMES strain): 2.0 (range of 1.4 to 2.6) mg/kg; MIC50 (Legionella pneumophila): 1 µg/mL (≈ 2.25 µM); MIC90 (Legionella pneumophila): 1 µg/mL (≈ 2.25 µM); MIC (B. anthracis [13]; Bacillus anthracis): 0.03 µg/mL (≈ 0.0675 µM); MIC (B. mallei [1]; Burkholderia mallei): 0.06 µg/mL (≈ 0.135 µM)

Question: For O=C(O)c1cn(C2CC2)c2cc(N3CCNCC3)c(F)cc2c1=O [Ciprofloxacin], which MIC50 (B. anthracis [14]) is on record?
Answer: 0.0625 µg/mL (≈ 0.189 µM)

Question: And the MIC90 (B. anthracis [14])?
Answer: 0.125 µg/mL (≈ 0.377 µM)

Question: What about the MIC range (B. anthracis [14]) of the same compound?
Answer: 0.03125 to .25 µg/mL

Question: And the MIC90 (Y. pestis [15])?
Answer: 0.03125 µg/mL (≈ 0.0943 µM)

Question: And the MIC range (Y. pestis [15])?
Answer: 0.0039 to 0.0625 µg/mL

Question: And the MIC50 (B. pseudomallei [16])?
Answer: 2 µg/mL (≈ 6.04 µM)

Question: And the MIC90 (B. pseudomallei [16])?
Answer: 4 µg/mL (≈ 12.1 µM)

Question: And the MIC range (B. pseudomallei [16])?
Answer: 0.5 to 32 µg/mL

Question: And the MIC50 (B. mallei [17])?
Answer: 0.5 µg/mL (≈ 1.51 µM)

Question: And the MIC90 (B. mallei [17])?
Answer: 1 µg/mL (≈ 3.02 µM)

Question: And the MIC range (B. mallei [17])?
Answer: 0.0625 to 1 µg/mL
